According to ChEMBL document CHEMBL5370548, “Discovery, optimization and biological evaluation of novel HBsAg production inhibitors” (Eur J Med Chem, 2023):
Calls of active or inactive are those of the source. The calls are words filed in the database; no cut-off is given here.

What was measured:
[1] = test system: Hepatitis B virus; test: Antiviral activity against HBV infected in human HepG2.2.15 cells assessed as inhibition of HBV DNA incubated for 6 days with replacement of fresh media for every 72 hrs by real-time qPCR analysis; assay type: functional, organism-based
[2] = test system: Hepatitis B virus; test: Antiviral activity against HBV infected in human HepG2.2.15 cells assessed as inhibition of HBsAg level incubated for 6 days with replacement of fresh media for every 72 hrs by real-time qPCR analysis; assay type: functional, organism-based
[3] = Metabolic stability in human liver microsomes assessed as half life at 1 uM preincubated for 5 mins followed by NADPH addition and measured upto 60 min by LC-MS/MS analysis; assay type: ADME, Microsome; settings: time < 65 min
[4] = Metabolic stability in human liver microsomes assessed as parent compound remaining at 1 uM measured upto 60 min in presence of NADPH by LC-MS/MS analysis; assay type: ADME, Microsome; settings: read-out: Stability
[5] = Metabolic stability in mouse liver microsomes assessed as half life at 1 uM preincubated for 5 mins followed by NADPH addition and measured upto 60 min by LC-MS/MS analysis; assay type: ADME, Microsome; settings: time < 65 min
[6] = Metabolic stability in mouse liver microsomes assessed as parent compound remaining at 1 uM measured upto 60 min in presence of NADPH by LC-MS/MS analysis; assay type: ADME, Microsome; settings: read-out: Stability
[7] = AUC (0 to t) in ICR mouse at 1 mg/kg, iv by UPLC-MS/MS analysis; assay type: ADME, organism-based; set-up: dose 1 mg/kg, route iv; settings: in vivo
[8] = test system: HepG2 2.2.15; test: Cytotoxicity against human HepG2.2.15 cells by CCK-8 method; assay type: functional
[9] = AUC (0 to infinity) in ICR mouse at 1 mg/kg, iv by UPLC-MS/MS analysis; assay type: ADME, organism-based; set-up: dose 1 mg/kg, route iv; settings: in vivo
[10] = Half life in ICR mouse at 1 mg/kg, iv by UPLC-MS/MS analysis; assay type: ADME, organism-based; settings: in vivo
[11] = Volume of distribution at steady state in ICR mouse at 1 mg/kg, iv by UPLC-MS/MS analysis; assay type: ADME, organism-based; settings: in vivo, read-out: Vdss
[12] = Clearance in ICR mouse at 1 mg/kg, iv by UPLC-MS/MS analysis; assay type: ADME, organism-based; settings: in vivo
[13] = Bioavailability in ICR mouse at 1 mg/kg, iv by UPLC-MS/MS analysis; assay type: ADME, organism-based; settings: in vivo
[14] = AUC (0 to t) in ICR mouse at 10 mg/kg, IG by UPLC-MS/MS analysis; assay type: ADME, organism-based; set-up: dose 10 mg/kg, route ig; settings: in vivo, po
[15] = AUC (0 to infinity) in ICR mouse at 10 mg/kg, IG by UPLC-MS/MS analysis; assay type: ADME, organism-based; set-up: dose 10 mg/kg, route ig; settings: in vivo, po
[16] = Half life in ICR mouse at 10 mg/kg, IG by UPLC-MS/MS analysis; assay type: ADME, organism-based; settings: in vivo, po
[17] = Tmax in ICR mouse at 10 mg/kg, IG by UPLC-MS/MS analysis; assay type: ADME, organism-based; settings: in vivo, po
[18] = Cmax in ICR mouse at 10 mg/kg, IG by UPLC-MS/MS analysis; assay type: ADME, organism-based; set-up: dose 10 mg/kg, route ig; settings: in vivo, po
[19] = test system: Hepatitis B virus; test: In vivo antiviral activity against HBV infected in uPA/SCID mouse assessed as reduction in serum HBsAg level at 10 mg/kg, po administered twice daily for 21 days and measured upto 35 days; assay type: functional; settings: time <= 35 day
[20] = test system: Hepatitis B virus; test: In vivo antiviral activity against HBV infected in uPA/SCID mouse assessed as reduction in serum HBsAg level at 10 mg/kg, po administered twice daily for 28 days; assay type: functional, organism-based; settings: time 28.0 day
[21] = Metabolic stability in mouse liver microsomes assessed as intrinsic clearance at 1 uM preincubated for 5 mins followed by NADPH addition and measured upto 60 min by LC-MS/MS analysis; assay type: ADME, Microsome; settings: time < 65 min, read-out: CLH
[22] = Metabolic stability in human liver microsomes assessed as intrinsic clearance at 1 uM preincubated for 5 mins followed by NADPH addition and measured upto 60 min by LC-MS/MS analysis; assay type: ADME, Microsome; settings: time < 65 min, read-out: CLH

Compound | EC50 [1] | EC50 [2] | half-life at 1 µM [3] | remaining at 1 h, 1 µM [4] | other results
Fc1cc(N2CC(F)C2)cc(N2[C@@H]3CCC[C@H]2c2cnc(-c4ccccn4)nc2C3)n1 (single isomer, unassigned) | > 10000 nM | > 10000 nM | – | – | –
COCCN(C)c1cc(F)nc(N2[C@H]3CC[C@@H]2c2cnc(-c4ncccn4)nc2C3)c1 | 21 nM | 31 nM | – | – | –
Fc1cc(NCC2CC2)cc(N2[C@H]3CC[C@@H]2c2cnc(-c4ncccn4)nc2C3)n1 | 105 nM | 106 nM | – | – | –
COCCOc1cc(F)nc(N2[C@H]3CC[C@@H]2c2cnc(-c4ncccn4)nc2C3)c1 | 44 nM | 73 nM | – | – | –
COC1CN(c2cc(F)nc(N3[C@@H]4CCC[C@H]3c3cnc(-c5ncccn5)nc3C4)c2)C1 (single isomer, unassigned) | 16 nM | 16 nM | > 3.33 h | 92.3% | half-life at 1 µM [5]: > 3.33 h; remaining at 1 h, 1 µM [6]: 80.4%
COC1CCN(c2cc(F)nc(N3[C@H]4CC[C@@H]3c3cnc(-c5ncccn5)nc3C4)c2)C1 (some centres undefined) | 189 nM | 193 nM | – | – | –
COc1cc(F)nc(N2[C@@H]3CCC[C@H]2c2cnc(-c4ncccn4)nc2C3)c1 (single isomer, unassigned) | 15 nM | 26 nM | – | – | –
CN(C)c1cc(F)nc(N2[C@@H]3CCC[C@H]2c2cnc(-c4ccccn4)nc2C3)c1 (single isomer, unassigned) | > 10000 nM | > 10000 nM | – | – | –
Fc1cc(N2CCOCC2)cc(N2[C@H]3CC[C@@H]2c2cnc(-c4ncccn4)nc2C3)n1 | 39 nM | 54 nM | – | – | –
COc1cc(N2[C@H]3CC[C@@H]2c2cnc(-c4ncccn4)nc2C3)cc(F)c1F | 169 nM | 443 nM | > 3.33 h | 99.1% | –
Fc1cc(N2CC(F)C2)cc(N2[C@H]3CC[C@@H]2c2cnc(-c4ncccn4)nc2C3)n1 | 18 nM | 44 nM | > 3.33 h | 99.7% | AUC(0-t) [7]: 3410 ng·h/mL; CC50 [8]: > 100000 nM; AUC(0-inf) [9]: 3410 ng·h/mL; half-life [10]: 1.16 h; Vd [11]: 0.49 L/kg; clearance [12]: 4.88 mL/min/kg; bioavailability [13]: 80.2%; AUC(0-t) [14]: 27400 ng·h/mL; AUC(0-inf) [15]: 27400 ng·h/mL; half-life [16]: 1.23 h; Tmax [17]: 0.25 h; Cmax [18]: 9580 ng/mL; Activity [19]: 1.08 log10/ml; Activity [20]: Active
CN(C)c1cc(N2[C@H]3CC[C@@H]2c2cnc(-c4ncccn4)nc2C3)cc(F)n1 | 89 nM | 2450 nM | – | – | –
CS(=O)(=O)N1CCN(c2cc(F)nc(N3[C@@H]4CCC[C@H]3c3cnc(-c5ncccn5)nc3C4)c2)CC1 (single isomer, unassigned) | 75 nM | 25 nM | > 3.33 h | 94% | half-life at 1 µM [5]: > 3.33 h; remaining at 1 h, 1 µM [6]: 85.7%
COCCN(C)c1cc(F)nc(N2C[C@H]3CC[C@@H]2c2cnc(-c4ncccn4)nc23)c1 | 154 nM | 244 nM | – | – | –
COCCN(C)c1cc(F)nc(N2C[C@@H]3CC[C@H]2c2cnc(-c4ncccn4)nc23)c1 | 1090 nM | > 10000 nM | – | – | –
COCCCOc1cc2c(cc1OC)-c1cc(=O)c(C(=O)O)cn1[C@H](C(C)C)C2 | 1 nM | 6 nM | – | – | AUC(0-t) [7]: 346 ng·h/mL; AUC(0-inf) [9]: 349 ng·h/mL; half-life [10]: 0.653 h; Vd [11]: 2.7 L/kg; clearance [12]: 47.8 mL/min/kg; bioavailability [13]: 88.6%; AUC(0-t) [14]: 3060 ng·h/mL; AUC(0-inf) [15]: 3080 ng·h/mL; half-life [16]: 1.12 h; Tmax [17]: 0.25 h; Cmax [18]: 1100 ng/mL
COC1CN(c2cc(F)nc(N3[C@H]4CC[C@@H]3c3cnc(-c5ncccn5)nc3C4)c2)C1 | 31 nM | 116 nM | > 3.33 h | 105% | –
CN(C)c1cc(F)nc(N2[C@H]3CC[C@@H]2c2cnc(-c4ncccn4)nc2C3)c1 | 34 nM | 41 nM | > 3.33 h | 86.2% | half-life at 1 µM [5]: 1.63 h; CLint scaled at 1 µM [21]: 56.2 mL/min/kg; remaining at 1 h, 1 µM [6]: 63.9%
Fc1cc(N2CC(F)C2)cc(N2[C@@H]3CCC[C@H]2c2cnc(-c4ncccn4)nc2C3)n1 (single isomer, unassigned) | 7 nM | 12 nM | – | – | –
CN(C)c1cc(F)nc(N2[C@@H]3CCC[C@H]2c2cnc(-c4ncccn4)nc2C3)c1 (single isomer, unassigned) | 2 nM | 14 nM | 1.93 h | 69% | AUC(0-t) [7]: 2480 ng·h/mL; CLint scaled at 1 µM [22]: 10.7 mL/min/kg; half-life at 1 µM [5]: 1.12 h; CLint scaled at 1 µM [21]: 81.4 mL/min/kg; remaining at 1 h, 1 µM [6]: 52.4%; AUC(0-inf) [9]: 2490 ng·h/mL; half-life [10]: 1.65 h; Vd [11]: 0.96 L/kg; clearance [12]: 6.67 mL/min/kg; bioavailability [13]: 125%; AUC(0-t) [14]: 31000 ng·h/mL; AUC(0-inf) [15]: 31900 ng·h/mL; half-life [16]: 1.95 h; Tmax [17]: 0.5 h; Cmax [18]: 9900 ng/mL; Activity [19]: 0.74 log10/ml
COCCNc1cc(F)nc(N2[C@H]3CC[C@@H]2c2cnc(-c4ncccn4)nc2C3)c1 | 111 nM | 94 nM | – | – | –
